Measurements: patent US10323022B2, “Pyrrolidinyl urea, pyrrolidinyl thiourea and pyrrolidinyl guanidine compounds as TrkA kinase inhibitors” (Array BioPharma Inc., priority 2011, dated 2019)
Where a name gives a salt, the structure may show the parent alone.

Target: TrkA (Homo sapiens (Human), UniProt P04629)
Test: TrkA Omnia Assay
Format: biochemical
Conditions: averaged IC50; 20 nM enzyme, 500 μM ATP, 10 μM peptide substrate
How it was run: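 Continuous fluorescent kinase read-out (ex 360 nm, em 485 nm) over 70 min, with initial rates fitted to 4- or 5-parameter logistic curves for IC50. Final conditions: 500 μM ATP, 10 μM Omnia Tyr Peptide #4, 20 nM TrkA, MOPS pH 7.5 buffer with MgCl2 and Triton X-100; enzyme and compound preincubated 10 min at ambient temperature.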

Sequence of TrkA (P04629 33-796): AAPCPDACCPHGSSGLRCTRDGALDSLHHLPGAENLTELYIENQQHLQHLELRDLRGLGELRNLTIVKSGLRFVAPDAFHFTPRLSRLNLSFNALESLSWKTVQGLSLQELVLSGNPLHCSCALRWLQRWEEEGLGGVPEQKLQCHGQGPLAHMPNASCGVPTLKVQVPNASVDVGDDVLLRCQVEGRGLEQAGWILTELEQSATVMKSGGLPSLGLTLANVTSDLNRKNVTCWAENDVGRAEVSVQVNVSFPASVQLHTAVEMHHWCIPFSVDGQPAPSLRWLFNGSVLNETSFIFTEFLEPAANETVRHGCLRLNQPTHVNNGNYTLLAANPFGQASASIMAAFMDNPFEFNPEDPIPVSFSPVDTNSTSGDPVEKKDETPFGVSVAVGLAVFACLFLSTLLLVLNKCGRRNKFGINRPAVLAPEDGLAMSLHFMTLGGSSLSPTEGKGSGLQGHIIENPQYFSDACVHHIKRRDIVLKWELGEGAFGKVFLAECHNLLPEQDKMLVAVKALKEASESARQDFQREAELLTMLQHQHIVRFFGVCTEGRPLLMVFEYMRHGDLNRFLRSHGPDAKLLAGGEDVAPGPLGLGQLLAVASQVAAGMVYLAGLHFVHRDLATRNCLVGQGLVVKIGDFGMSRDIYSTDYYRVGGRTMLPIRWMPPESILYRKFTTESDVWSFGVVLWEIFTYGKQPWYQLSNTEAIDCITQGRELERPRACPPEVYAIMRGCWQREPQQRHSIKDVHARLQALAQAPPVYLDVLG

SMILES	IC50
COCCN1C[C@@H](NC(=O)Nc2c(-c3ccccc3)cnn2C)[C@H](c2ccccc2)C1 (relative stereo) [Example 31, 1-(trans-1-(2-methoxyethyl)-4-phenylpyrrolidin-3-yl)-3-(1-methyl-4-phenyl-1H-pyrazol-5-yl)urea]	100 to 1000 nM
COCCN1C[C@@H](NC(=O)Nc2cc(C(C)(C)C)nn2-c2cccc(F)c2)[C@H](c2ccccc2)C1 (relative stereo) [Example 17, 1-(3-tert-butyl-1-(3-fluorophenyl)-1H-pyrazol-5-yl)-3-(trans-1-(2-methoxyethyl)-4-phenylpyrrolidin-3-yl)urea]	100 to 1000 nM
COCCN1C[C@@H](NC(=O)Nc2ccnn2-c2ccccc2)[C@H](c2ccccc2)C1 (relative stereo) [Example 15, 1-(trans-1-(2-methoxyethyl)-4-phenylpyrrolidin-3-yl)-3-(1-phenyl-1H-pyrazol-5-yl)urea]	100 to 1000 nM
COCCN1C[C@@H](NC(=O)Nc2c3c(nn2-c2ccccc2)CS(=O)(=O)C3)[C@H](c2cc(F)cc(F)c2)C1 [Example 173, 1-((3S,4R)-4-(3,5-difluorophenyl)-1-(2-methoxyethyl)pyrrolidin-3-yl)-3-(5,5-dioxido-2-phenyl-4,6-dihydro-2H-thieno[3,4-c]pyrazol-3-yl)urea]	< 100 nM
CCN1C[C@@H](NC(=O)Nc2c3c(nn2-c2ccccc2)CCC3)[C@H](c2ccccc2)C1 (relative stereo) [Example 193, 1-((trans)-1-ethyl-4-phenylpyrrolidin-3-yl)-3-(2-phenyl-2,4,5,6-tetrahydrocyclopenta[c]pyrazol-3-yl)urea]	100 to 1000 nM
COCCN1C[C@@H](NC(=O)Nc2c(Br)c(-c3cnn(C)c3)nn2-c2ccccc2)[C@H](c2ccc(F)c(F)c2)C1 [Example 420, 1-(4-bromo-1′-methyl-1-phenyl-1H,1′H-[3,4′-bipyrazol]-5-yl)-3-((3S,4R)-4-(3,4-difluorophenyl)-1-(2-methoxyethyl)pyrrolidin-3-yl)urea]	< 100 nM
COCCN1C[C@@H](NC(=O)Nc2c(Br)c(-c3cnn(C)c3)nn2-c2ccccc2)[C@H](c2cc(F)cc(F)c2)C1 [Example 419, 1-(4-bromo-1′-methyl-1-phenyl-1H,1′H-[3,4′-bipyrazol]-5-yl)-3-((3S,4R)-4-(3,5-difluorophenyl)-1-(2-methoxyethyl)pyrrolidin-3-yl)urea]	< 100 nM
COCCN1C[C@@H](NC(=O)Nc2c(Cl)c(OC[C@@H](C)O)nn2-c2ccccc2)[C@H](c2cc(F)cc(F)c2)C1 [Example 373, 1-(4-chloro-3-((R)-2-hydroxypropoxy)-1-phenyl-1H-pyrazol-5-yl)-3-((3S,4R)-4-(3,5-difluorophenyl)-1-(2-methoxyethyl)pyrrolidin-3-yl)urea]	< 100 nM
COCCN1C[C@@H](NC(=O)Nc2c(Cl)c(COC)nn2-c2ccccc2)[C@H](c2cc(F)cc(F)c2)C1 [Example 405, 1-(4-chloro-3-(methoxymethyl)-1-phenyl-1H-pyrazol-5-yl)-3-((3S,4R)-4-(3,5-difluorophenyl)-1-(2-methoxyethyl)pyrrolidin-3-yl)urea]	< 100 nM
COCCN1C[C@@H](NC(=O)Nc2c(C)c(OCCO)nn2-c2ccccc2)[C@H](c2ccc(F)c(F)c2)C1 [Example 178, 1-((3S,4R)-4-(3,4-difluorophenyl)-1-(2-methoxyethyl)pyrrolidin-3-yl)-3-(3-(2-hydroxyethoxy)-4-methyl-1-phenyl-1H-pyrazol-5-yl)urea hydrochloride]	< 100 nM
COCCN1C[C@@H](NC(=O)Nc2c(Cl)c(-c3ccccc3)nn2-c2cccnc2)[C@H](c2ccc(F)c(F)c2)C1 [Example 485, 1-(4-chloro-3-phenyl-1-(pyridin-3-yl)-1H-pyrazol-5-yl)-3-((3S,4R)-4-(3,4-difluorophenyl)-1-(2-methoxyethyl)pyrrolidin-3-yl)urea]	100 to 1000 nM
CNC(=O)c1nn(-c2ccccc2)c(NC(=O)N[C@@H]2CN(CCOC)C[C@H]2c2ccc(F)c(Cl)c2)c1C (relative stereo) [Example 301, 5-(3-(trans-4-(3-chloro-4-fluorophenyl)-1-(2-methoxyethyl)pyrrolidin-3-yl)ureido)-N,4-dimethyl-1-phenyl-1H-pyrazole-3-carboxamide]	< 100 nM
COCC(CO)N1C[C@@H](NC(=O)Nc2c3c(nn2-c2ccccc2)CCC3)[C@H](c2ccc(F)c(F)c2)C1 (stereo partly drawn) [Example 260, 1-((3S,4R)-4-(3,4-difluorophenyl)-1-(1-hydroxy-3-methoxypropan-2-yl)pyrrolidin-3-yl)-3-(2-phenyl-2,4,5,6-tetrahydrocyclopenta[c]pyrazol-3-yl)urea]	< 100 nM
COCCN1C[C@@H](NC(=O)Nc2c(Cl)c(C(F)(F)CO)nn2-c2ccccc2)[C@H](c2ccc(F)c(F)c2)C1 [Example 409, 1-(4-chloro-3-(1,1-difluoro-2-hydroxyethyl)-1-phenyl-1H-pyrazol-5-yl)-3-((3S,4R)-4-(3,4-difluorophenyl)-1-(2-methoxyethyl)pyrrolidin-3-yl)urea]	< 100 nM
COCCN1C[C@@H](NC(=O)Nc2cc(-c3ccccc3)nn2C)[C@H](c2ccc(F)cc2F)C1 [Example 111, 1-((3S,4R)-4-(2,4-difluorophenyl)-1-(2-methoxyethyl)pyrrolidin-3-yl)-3-(1-methyl-3-phenyl-1H-pyrazol-5-yl)urea]	< 100 nM
COCCN1C[C@@H](NC(=O)Nc2c(C)c(=O)[nH]n2-c2ccccc2)[C@H](c2cc(F)cc(Cl)c2)C1 (relative stereo) [Example 614, 1-((trans)-4-(3-chloro-5-fluorophenyl)-1-(2-methoxyethyl)pyrrolidin-3-yl)-3-(4-methyl-5-oxo-2-phenyl-2,5-dihydro-1H-pyrazol-3-yl)urea]	< 100 nM
Cc1nn(-c2ccccc2)c(NC(=O)N[C@@H]2CN(CCO)C[C@H]2c2ccc(F)c(F)c2)c1C [Example 191, 1-((3S,4R)-4-(3,4-difluorophenyvl)-1-(2-hydroxyethyl)pyrrolidin-3-yl)-3-(3,4-dimethyl-1-phenyl-1H-pyrazol-5-yl)urea]	100 to 1000 nM
COCCN1C[C@@H](NC(=O)Nc2cc(-c3ccc(F)cc3)nn2C)[C@H](c2ccc(F)c(F)c2)C1 [Example 113, 1-((3S,4R)-4-(3,4-difluorophenyl)-1-(2-methoxyethyl)pyrrolidin-3-yl)-3-(3-(4-fluoro-phenyl)-1-methyl-1H-pyrazol-5-yl)urea]	< 100 nM
COCCN1C[C@@H](NC(=O)Nc2c(C(F)(F)F)c(OC)nn2-c2ccccc2)[C@H](c2ccc(F)c(F)c2)C1 [Example 605, 1-((3S,4R)-4-(3,4-difluorophenyl)-1-(2-methoxyethyl)pyrrolidin-3-yl)-3-(3-methoxy-1-phenyl-4-(trifluoromethyl)-1H-pyrazol-5-yl)urea]	< 100 nM
N#CCN1C[C@@H](NC(=O)Nc2c3c(nn2-c2ccccc2)CCC3)[C@H](c2ccc(F)c(F)c2)C1 [Example 186, 1-((3S,4R)-1-(cyanomethyl)-4-(3,4-difluorophenyl)pyrrolidin-3-yl)-3-(2-phenyl-2,4,5,6-tetrahydrocyclopenta[c]pyrazol-3-yl)urea]	< 100 nM

More lines, now with the values ahead:

IC50	SMILES
< 100 nM	COCCN1C[C@@H](NC(=O)Nc2cc(C(C)(C)C#N)nn2-c2ccccc2)[C@H](c2ccc(F)c(F)c2)C1 [Example 71, 1-(3-(2-cyanopropan-2-yl)-1-phenyl-1H-pyrazol-5-yl)-3-((3S,4R)-4-(3,4-difluorophenyl)-1-(2-methoxyethyl)pyrrolidin-3-yl)urea]
< 100 nM	CCOc1nn(-c2ccccc2)c(NC(=O)N[C@@H]2CN(C(C)COC)C[C@H]2c2ccc(F)c(F)c2)c1C (stereo partly drawn) [Example 255, 1-((3S,4R)-4-(3,4-difluorophenyl)-1-(1-methoxypropan-2-yl)pyrrolidin-3-yl)-3-(3-ethoxy-4-methyl-1-phenyl-1H-pyrazol-5-yl)urea]
< 100 nM	COCCN1C[C@@H](NC(=O)Nc2c(C)c(-c3cnn(C(OCC(F)(F)F)C(F)(F)F)c3)nn2-c2ccccc2)[C@H](c2ccc(F)c(F)c2)C1 (stereo partly drawn) [Example 498, 1-((3S,4R)-4-(3,4-difluorophenyvl)-1-(2-methoxyethyl)pyrrolidin-3-yl)-3-(4-methyl-1-phenyl-1′-(2,2,2-trifluoro-1-(2,2,2-trifluoroethoxy)ethyl)-1H,1′H-[3,4′-bipyrazol]-5-yl)urea]
< 100 nM	COCCN1C[C@@H](NC(=O)Nc2c(C)c(OCc3nnc(C)o3)nn2-c2ccccc2)[C@H](c2ccc(F)c(F)c2)C1 [Example 355, 1-((3S,4R)-4-(3,4-difluorophenyl)-1-(2-methoxyethyl)pyrrolidin-3-yl)-3-(4-methyl-3-((5-methyl-1,3,4-oxadiazol-2-yl)methoxy)-1-phenyl-1H-pyrazol-5-yl)urea]
< 100 nM	Cc1c(OC[C@H]2COC(C)(C)O2)nn(-c2ccccc2)c1NC(=O)N[C@H]1CN(CC(F)(F)F)C[C@@H]1c1ccccc1 [Example 271, 1-(3-(((S)-2,2-dimethyl-1,3-dioxolan-4-yl)methoxy)-4-methyl-1-phenyl-1H-pyrazol-5-yl)-3-((3R,4S)-4-phenyl-1-(2,2,2-trifluoroethyl)pyrrolidin-3-yl)urea]
< 100 nM	COCCN1C[C@@H](NC(=O)Nc2c(C)c(-c3cnn(CCOC)c3)nn2-c2ccccc2)[C@H](c2ccc(F)c(F)c2)C1 [Example 348, 1-((3S,4R)-4-(3,4-difluorophenyl)-1-(2-methoxyethyl)pyrrolidin-3-yl)-3-(1′-(2-methoxyethyl)-4-methyl-1-phenyl-1H,1′H-[3,4′-bipyrazol]-5-yl)urea]
< 100 nM	COCCN1C[C@@H](NC(=O)Nc2c3c(nn2-c2ccccc2)C[S+]([O-])C3)[C@H](c2ccccc2)C1 (stereo partly drawn) [Example 95, 1-((3S,4R)-1-(2-methoxy-ethyl)-4-phenylpyrrolidin-3-yl)-3-(5-oxido-2-phenyl-4,6-dihydro-2H-thieno [3,4-c]pyrazol-3-yl)urea]
< 100 nM	COCCN1C[C@@H](NC(=O)Nc2c(Br)c(-c3cnn(C)c3)nn2-c2ccccc2)[C@H](c2ccc(F)cc2)C1 [Example 421]
